Where two headings read alike, the source gives them in different places.
Tests used:
Format in all cases: in vivo
[1] = tested on: fall armyworm larvae (Spodoptera frugiperda); assay: Spodoptera frugiperda spray test; conditions: 168 h, application rate 100 g/ha, after 7 days, maize leaf sections
In short: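 Caterpillars are placed on sprayed, dried maize leaf sections. Sprays contain compound diluted in water with emulsifier at 1000 ppm; mortality in % is determined 7 days later.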

[2] = tested on: adult engorged female ticks (Rhipicephalus microplus); assay: Rhipicephalus (Boophilus) microplus injection test; conditions: 168 h, read-out: activity (efficacy: infertile eggs)
In short: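 Efficacy is scored from egg fertility, with 100% meaning every egg infertile and 0% every egg fertile. Five engorged females per test received 1 μL DMSO solution abdominally. Eggs of unclear fertility were kept until hatching, about 42 days.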

[3] = tested on: adult unfed cat fleas (Ctenocephalides felis); assay: Ctenocephalides felis oral test; conditions: 48 h, read-out: activity (mortality)
Protocol: Ctenocephalides felis—Oral Test
Solvent: dimethyl sulfoxide
To produce a suitable preparation of active compound, 10 mg of active compound are dissolved in 0.5 mL solvent, and the concentrate is diluted with citrated cattle blood to the desired concentration.
Approximately 20 adult unfed cat fleas (Ctenocephalides felis) are placed in a flea chamber whose top and bottom is covered with gauze. A chamber whose bottom is sealed with parafilm, is filled with the blood-compound solution and placed on top of the flea chamber, so that the fleas can suck the blood. The blood chamber is heated to 37° C. whereas the flea chamber is kept at room temperature.
After 2 days mortality in % is determined. 100% means all the fleas have been killed; 0% means none of the fleas have been killed.

[4] = tested on: adult brown dog ticks (Rhipicephalus sanguineus); assay: Rhipicephalus sanguineus in-vitro contact test, adult brown dog ticks; conditions: application rate 5 μg/cm^2 (=500 g/ha), after 48 hours, read-out: activity (efficacy: ticks dead or moribund)
In short: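 Efficacy (%) reflects the fraction of adult ticks dead or moribund after 48 h of contact with a dried acetone film on tube walls at 5 μg/cm^2 (from 900 ppm). Moribund status was assessed by inability to climb away from heat at 45-50° C.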

[5] = tested on: adult cat fleas (Ctenocephalides felis); assay: Ctenocephalides felis in-vitro contact test, adult cat flea; conditions: application rate 5 μg/cm^2 (=500 g/ha), after 48 hours, read-out: activity (efficacy: fleas dead or moribund)
In short: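 Acetone solutions of compound were coated onto inner walls of glass tubes (900 ppm giving 5 μg/cm^2) and dried; 5-10 adult C. felis were then held 48 h at room temperature. Efficacy = % fleas dead or moribund, judged by inability to escape a 45-50° C heating plate within 5 min.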

[6] = tested on: green peach aphid (Myzus persicae); assay: Myzus persicae oral test; conditions: 120 h, read-out: activity (mortality)
In short: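 Compound was dissolved at 1 part by weight in 100 parts acetone, then diluted with water to test concentration and combined with IPL41 insect medium (33%+15% sugar). A mixed aphid population fed on this through a parafilm seal, and mortality (%) was scored after 5 days.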

[7] = tested on: Rhipicephalus (Boophilus) microplus larvae (strain Parkhurst, resistant against synthetic pyrethroids); assay: Rhipicephalus (Boophilus) microplus in-vitro contact test, larval cattle tick; conditions: read-out: activity (efficacy: larvae dead or moribund)
In short: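 Acetone solutions were coated onto glass tube walls, giving 5 μg/cm^2 at 900 ppm. Once dry, 20–50 pyrethroid-resistant Parkhurst larvae were added per tube and held 48 h at 27 °C and 85% RH. Efficacy was scored by negative geotaxis as the percentage of dead or moribund larvae.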

[8] = tested on: green peach aphid (Myzus persicae); assay: Myzus persicae spray test; conditions: foliar, 120 h, read-out: activity (mortality)
In short: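 Chinese cabbage leaf disks infested with all aphid instars were sprayed with compound diluted in water containing emulsifier (1000 ppm). Mortality (%) was scored after 5 days, 100% meaning all aphids killed.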

[9] = tested on: larvae of the banded cucumber beetle (Diabrotica balteata); assay: Diabrotica balteata spray test; conditions: 168 h, application rate 100 g/ha (=32 μg/well), after 7 days, wheat seeds, read-out: activity (efficacy: seedlings grown)
In short: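 Wheat seeds germinated 1 day on agar were sprayed with compound diluted in water with 1000 ppm emulsifier, then infested with 10-20 Diabrotica balteata larvae. Efficacy in % scored after 7 days: 100% = seedlings grown as untreated, uninfected control; 0% = no seedlings grown.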

[10] = tested on: larvae of the southern green stink bug (Nezara viridula); assay: Nezara viridula spray test; conditions: in Hordeum vulgare, 96 h, read-out: activity (mortality)
Protocol: Nezara viridula—Spray Test
To produce a suitable preparation of active compound, 1 part by weight of active compound is mixed with the stated amount of solvent, and the concentrate is diluted with water, containing an emulsifier concentration of 1000 ppm, to the desired concentration. Further test concentrations are prepared by dilution with emulsifier containing water.
Barley plants (Hordeum vulgare) are sprayed with a test solution containing the desired concentration of the active ingredient and are infested with larvae of the southern green stink bug (Nezara viridula).
After 4 days mortality in % is determined. 100% means all the stink bugs have been killed; 0% means none of the stink bugs have been killed.

[11] = application rate 4 μg/tick, egg deposition after 7 days
[12] = application rate 1 μg/cm^2 (=100 g/ha), after 48 hours
[13] = application rate 5 μg/cm^2 (=500 g/ha), after 48 hours
[14] = application rate 100 g/ha, after 5 days, Chinese cabbage leaf disks

| Structure (SMILES) | mortality at 100 g/ha [1] | pest or weed control at 0.004 mg [2, 11] | mortality at 100 ppm [3] | pest or weed control at 5 µg/cm2, 500 g/ha [4] | pest or weed control at 5 µg/cm2 [5] | mortality at 4 ppm [6] | pest or weed control at 1 µg/cm2, 100 g/ha [7, 12] | pest or weed control at 5 µg/cm2, 500 g/ha [7, 13] | mortality at 100 g/ha [8, 14] | pest or weed control at 32 µg/disc, 100 g/ha [9] | mortality at 20 ppm [6] | mortality at 100 g/ha ([8]; in Brassica rapa) | pest or weed control at 1 µg/cm2, 100 g/ha ([7]; 48 h) | pest or weed control at 5 µg/cm2, 500 g/ha ([7]; 48 h) | mortality at 500 g/ha [10] | pest or weed control at 0.004 mg [2] |
| --- | --- | --- | --- | --- | --- | --- | --- | --- | --- | --- | --- | --- | --- | --- | --- | --- |
| Cc1nc([C@H](C)NC(=O)c2cc(Cl)cc(C(F)(F)F)c2)n(-c2ccc(C(=O)N3CC[C@@H](F)C3)cn2)n1 [Example I-19] | 100% | 100% | 100% | 100% | 100% | 90% | 100% | 100% | – | – | – | – | – | – | – | – |
| C[C@H](NC(=O)c1cc(C(F)(F)F)cc(C(F)(F)F)c1)c1ncnn1-c1cc(C(=O)N2CCOCC2)ccn1 [Example I-3] | – | – | 90% | 100% | – | 90% | 100% | 100% | – | – | – | – | – | – | – | – |
| C[C@@H]1CN(C(=O)c2ccc(-n3ncnc3[C@H](C)NC(=O)c3cc(Cl)cc(C(F)(F)F)c3)nc2)CCO1 [Example I-32] | 100% | 100% | 90% | 100% | 100% | 100% | 100% | 100% | 100% | 100% | – | – | – | – | – | – |
| Cc1nc([C@H](C)NC(=O)c2cc(Cl)cc(C(F)(F)F)c2)n(-c2ccc(C(=O)N3CCCC3)cn2)n1 [Example I-22] | 100% | 100% | 80% | 100% | 90% | – | 90% | 90% | – | – | – | – | – | – | – | – |
| CC(NC(=O)c1cc(Br)cc(Br)c1)c1nc(Cl)nn1-c1ccc(C(=O)N2CCOCC2)cn1 (racemic) [Example I-87, 3,5-Dibromo-N-[1-[5-chloro-2-[5-(morpholine-4-carbonyl)-2-pyridyl]-1,2,4-triazol-3-yl]ethyl]benzamide] | – | 100% | 90% | – | – | – | 100% | 90% | – | – | – | – | – | – | – | – |
| Cc1nc([C@H](C)NC(=O)c2cc(OC(F)(F)F)cc(C3CC3)c2)n(-c2ccc(C(=O)N3C[C@@H](C)O[C@H](C)C3)cn2)n1 [Example I-117] | – | 100% | 90% | 100% | 100% | 100% | 90% | 90% | 90% | – | – | – | – | – | – | – |
| C[C@H](NC(=O)c1cc(C(F)(F)F)cc(C(F)(F)F)c1)c1ncnn1-c1ccc(C(=O)N2CCCC(O)C2)cn1 (some centres unmarked) [Example I-7] | – | 100% | 90% | – | 90% | 100% | 90% | 90% | – | – | – | – | – | – | – | – |
| CC(NC(=O)c1cc(C(F)(F)F)cc(C(F)(F)F)c1)c1nc(I)nn1-c1ccc(C(=O)N2CCOCC2)cn1 (racemic) [Example I-84, N-[1-[5-iodo-2-[5-(morpholine-4-carbonyl)-2-pyridyl]-1,2,4-triazol-3-yl]ethyl]-3,5-bis(trifluoromethyl)benzamide] | 100% | 100% | 100% | – | – | – | 100% | 100% | – | 100% | – | – | – | – | – | – |
| Cc1nc([C@H](C)NC(=O)c2cc(Cl)cc(C(F)(F)F)c2)n(-c2ccc(C(=O)N3CC[C@H](F)C3)cn2)n1 [Example I-18] | 100% | 100% | 100% | 100% | 90% | – | 100% | 90% | – | – | – | – | – | – | – | – |
| C[C@@H]1CN(C(=O)c2ccc(-n3ncnc3[C@H](C)NC(=O)c3cc(OC(F)(F)F)cc(C4CC4)c3)nc2)C[C@@H](C)O1 [Example I-116] | – | 100% | 100% | 80% | 100% | 100% | 100% | 100% | 90% | 80% | – | – | – | – | – | – |
| CC(NC(=O)c1cc(Cl)cc(OC(F)(F)F)c1)c1nc(C(F)F)nn1-c1ccc(C(=O)N2CCOCC2)cn1 (centres unmarked) [Example I-59] | – | 100% | 100% | – | – | – | – | – | – | 80% | 100% | – | – | – | – | – |
| C[C@H](NC(=O)c1cc(Cl)cc(C(F)(F)F)c1)c1ncnn1-c1ccc(C(=O)N2CC3CC(C2)O3)cn1 [Example I-41] | – | 100% | 100% | 100% | 80% | 100% | – | – | – | 100% | – | 90% | 100% | 100% | – | – |
| C[C@H](NC(=O)c1cc(Cl)cc(C(F)(F)F)c1)c1ncnn1-c1ccc(C(=O)N2CCOC[C@@H]2C)cn1 [Example I-37] | 100% | 100% | 80% | 100% | – | – | 100% | 100% | – | 100% | – | – | – | – | – | – |
| Cc1nc([C@H](C)NC(=O)c2cc(C(F)(F)F)cc(C(F)(F)F)c2)n(-c2ccc(C(=O)N3CCC[Si](C)(C)C3)cn2)n1 [Example I-93] | – | – | 100% | – | – | – | – | – | – | – | – | – | 90% | 90% | 90% | 100% |
| C[C@H](NC(=O)c1cc(Cl)cc(C(F)(F)F)c1)c1ncnn1-c1ccc(C(=O)N2CCN(C)CC2)cn1 [Example I-42] | – | 100% | 80% | – | – | – | 100% | – | – | 80% | – | – | – | – | – | – |
| Cc1nc([C@H](C)NC(=O)c2cc(C(F)(F)F)cc(C(F)(F)F)c2)n(-c2ncc(C(=O)N3CCC3)s2)n1 [Example I-17] | 100% | 100% | 100% | – | 80% | 100% | 100% | 100% | – | – | – | – | – | – | – | – |
| C[C@H](NC(=O)c1cc(Cl)cc(C(F)(F)F)c1)c1ncnn1-c1ccc(N2CC(F)(F)C2)cn1 [Example I-108] | – | – | 100% | – | – | – | – | – | – | – | – | – | – | – | – | – |

Source: patent US20230058623A1, “NOVEL HETEROARYL-TRIAZOLE COMPOUNDS AS PESTICIDES” (Bayer Aktiengesellschaft, priority 2019, published 2023)
